IC50 data for 15 compounds are collected here from patent US8148385B2, “Substituted [1,2,3] triazolo[4,5-d]pyrimidine derivatives as ADP P2Y12 receptor antagonists” (Janssen Pharmaceutica N.V., priority 2006, dated 2012).

Where only a bound is given, the exact number is not on record here.

One assay has as its target T1, ADP P2Y12 (Homo sapiens, UniProt Q9H244).
T1 construct: expressed in transfected cells
Put plainly: FLIPR calcium assay transducing Gi-coupled signaling to the Gq pathway (inhibition of calcium mobilization). Type of assay: cell-based. Conditions: HEK 293 cells co-transfected with P2Y12 and Gqi5, ADP at EC60-70 dose. The source says: A FLIPR Calcium Assay Transducing Gi-Coupled Signaling to the Gq Pathway
The ADP P2Y12 subtype is a Gi coupled GPCR, which mediates inhibition of adenylate cyclase leading to decreased cAMP while Gq proteins primarily activate phospholipase C, which stimulates inositol-1,4,5-triphosphate (IP3) formation and a subsequent increase in intracellular Ca^2+ concentration, which can be easily measured by FLIPR. Prior to the development of a method to convert a Gi coupled GPCR signaling to a Gq coupled GPCR signaling, a significant barrier existed for the functional testing and screening of Gi coupled GPCRs. One popular method, GTPγS migration, is slow, produces a small signal and generates radioactive waste. The discovery that a small switch in the amino acid sequence in the Gi protein could convert it to a protein mediating a Gq coupled response has led to the development of robust, high throughput assays for this valuable receptor subtype.
The FLIPR-based HTS assay transducing the Gi signaling to the Gq pathway is described below.
pcDNA3hygroP2Y12 containing a hygromycin resistance gene and pLEC1-Gqi5-HA containing a neomycin resistance gene (licensed from Molecular Devices, Sunnyvale, Calif.) were co-transfected into Human embryonic kidney (HEK) 293 cells with SuperFect (Qiagen, Valencia, Calif.). Cell clones were selected in the presence of 600 μg/ml hygromycin B (Life Technologies, Carlsbad, Calif.) and 1 mg/ml of G418 (Mediatech, Herndon, Va.). Drug resistant colonies were picked and screened by FLIPR and the gene expression was further confirmed by RT-PCR. Positive clones were maintained in growth medium (DMEM supplemented with 10% FBS, 1×p/s) containing 400 μg/ml of G418 and 200 μg/ml of hygromycin.
The day before the assay, cells are seeded in clear, flat-bottom black-wall, tissue culture treated polystyrene 96- or 384-well plates and incubated at 37° C., 5% CO2. 50 μl of complete dye loading solution (FLIPR Calcium Assay Kit, Molecular Devices) was added to each well containing 100 μl of culture media. The cells were incubated for at least 30 min at 37° C., in 5% CO2 before initiating the assay on the FLIPR. The agonist effect of ADP was tested and EC50 was determined prior to compound testing. The EC60-70 dose was used.
The antagonist compounds were prepared at 4× and the agonists were diluted at 5× the concentration desired in the test wells, and then aliquoted into the sample plates. The sample plates and the cell plate were placed in the FLIPR assay chamber. A first addition (50 μl) was made at the start of reading and a second addition (50 μl) was made after 5 min of reading. Raw fluorescence data was exported for each well and tabulated versus time within an ASCII file. Data was then imported into Excel and the peak response over the basal level was determined. The percent inhibition for each compound was calculated by the change in fluorescent density as a % inhibition of the control ADP response to obtain an IC50, as shown in Table 1 (wherein N/A means Not Applicable).
On the technique in general: A change in cytosolic calcium serves as a functional read-out for many receptors and channels.

The target in a further assay is T2, P2Y12 receptor (Homo sapiens, UniProt Q9H244).
T2 construct: expressed in transfected cells
Kind of assay: Whole cell receptor binding assay for 2-MeS[3H]-ADP. The conditions noted are these: whole HEK 293 cells transfected with P2Y12; 2-MeS[3H]-ADP 3 nM; 30 min at 37° C.; read-out: Inhibition of Receptor Binding IC50. The procedure: A whole cell-binding assay for 2-MeS [^3H]-ADP (Custom synthesized by Amersham BioScience, Piscataway, N.J.) to the P2Y12 receptor was performed.
A P2Y12 cDNA containing hygromycin resistant gene was transfected in HEK 293 cells. A stable cell line was obtained by a cloning selection method. The cells were cultured in DMEM supplemented with 10% FBS and 1× of p/s.
On the day of the assay, the cells were harvested and resuspended in 0.25% BSA-DMEM and adjusted to a cell concentration of 1.6×10^6/ml. […] The reaction was then incubated for 30 min at 37° C. and stopped by adding cold DMEM. […] The plates were dyed in a 37° C. oven for 1-2 hours and 50 μl of MicroScint-20 (PerkinElmer) was added to each well. The radioactivity was measured using a TOPCOUNT beta counter (Packard).

T1 sequence (Q9H244 whole entry): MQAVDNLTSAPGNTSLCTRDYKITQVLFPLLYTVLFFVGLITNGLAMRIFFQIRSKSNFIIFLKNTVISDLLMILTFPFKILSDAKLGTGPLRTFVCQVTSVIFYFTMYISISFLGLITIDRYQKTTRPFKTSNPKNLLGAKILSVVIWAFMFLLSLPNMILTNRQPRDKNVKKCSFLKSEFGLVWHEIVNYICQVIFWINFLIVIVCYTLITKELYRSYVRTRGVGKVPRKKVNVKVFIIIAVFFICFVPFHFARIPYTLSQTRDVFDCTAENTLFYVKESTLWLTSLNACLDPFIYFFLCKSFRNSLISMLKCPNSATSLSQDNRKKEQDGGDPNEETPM
T2 sequence (Q9H244 whole entry): as above

As for `CCCSc1nc(N[C@@H]2C[C@H]2c2ccccc2)c2nnn([C@@H]3C=C[C@H](O)[C@H]4OC(C)(C)O[C@H]43)c2n1` (mixture of isomers) [Cpd 10, (3aR,4S,7R,7aS)-2,2-dimethyl-7-{7-[(1RS,2SR)-2-phenyl-cyclopropylamino]-5-propylsulfanyl-[1,2,3]triazolo[4,5-d]pyrimidin-3-yl}-3a,4,7,7a-tetrahydro-benzo[1,3]dioxol-4-ol], the half-inhibitory concentration (IC50) (as a rule, the concentration that inhibits the measured activity by half) on ADP P2Y12 is more than 30 µM. On to `CCCSc1nc(N[C@@H]2C[C@H]2c2ccccc2)c2nnn([C@@H]3C=C[C@H](OCCO)[C@@H](O)[C@H]3O)c2n1` (mixture of isomers) [Cpd 13, (1S,2S,3S,6R)-3-(2-hydroxy-ethoxy)-6-{7-[(1RS,2SR)-2-phenyl-cyclopropylamino]-5-propylsulfanyl-[1,2,3]triazolo[4,5-d]pyrimidin-3-yl}-cyclohex-4-ene-1,2-diol], for which the IC50 at ADP P2Y12 was more than 30 µM; at P2Y12 receptor, 8.56 µM. Consider `CCCSc1nc(N[C@@H]2C[C@H]2c2ccccc2)c2nnn([C@@H]3CC[C@H](OCCO)[C@@H](O)[C@H]3O)c2n1` (mixture of isomers) [Cpd 15, (1S,2S,3S,6R)-3-(2-hydroxy-ethoxy)-6-{7-[(1RS,2SR)-2-phenyl-cyclopropylamino]-5-propylsulfanyl-[1,2,3]triazolo[4,5-d]pyrimidin-3-yl}-cyclohexane-1,2-diol], for which the half-maximal inhibitory concentration (IC50) at ADP P2Y12 is 2.63 µM; on P2Y12 receptor, 6.6 µM. In the case of `CCCSc1nc(N[C@@H]2C[C@H]2c2ccccc2)c2nnn(C3[C@@H](O)[C@@H](O)C(OCCO)[C@@H](O)[C@H]3O)c2n1` (mixture of isomers) [Cpd 12, (1R,2R,4S,5S)-3-(2-hydroxy-ethoxy)-6-{7-[(1RS,2SR)-2-phenyl-cyclopropylamino]-5-propylsulfanyl-[1,2,3]triazolo[4,5-d]pyrimidin-3-yl}-cyclohexane-1,2,4,5-tetraol], the IC50 came out at 6.9 µM on ADP P2Y12 and 2.2 µM at P2Y12 receptor. Turning to `CCCSc1nc(NC[C@H]2CCCO2)c2nnn([C@@H]3C=C[C@H](O)[C@@H](O)[C@H]3O)c2n1` [Cpd 2, (1S,2R,3S,6R)-6-(5-propylsulfanyl-7-{[(2R)-tetrahydro-furan-2-ylmethyl]-amino}-[1,2,3]triazolo[4,5-d]pyrimidin-3-yl)-cyclohex-4-ene-1,2,3-triol], the IC50 on ADP P2Y12 is more than 30 µM. With `CCCSc1nc(NC[C@@H]2CCCO2)c2nnn([C@@H]3C=C[C@H](O)[C@@H](O)[C@H]3O)c2n1` [Cpd 3, (1S,2R,3S,6R)-6-(5-propylsulfanyl-7-{[(2S)-tetrahydro-furan-2-ylmethyl]-amino}-[1,2,3]triazolo[4,5-d]pyrimidin-3-yl)-cyclohex-4-ene-1,2,3-triol], the results for the half-maximal inhibitory concentration (IC50) on ADP P2Y12 and at P2Y12 receptor were more than 30 µM and 4.75 µM, respectively. In the case of `CCCSc1nc(NCc2ccco2)c2nnn([C@@H]3C=C[C@H](O)[C@@H](O)[C@H]3O)c2n1` [Cpd 4, (1S,2R,3S,4R)-6-{7-[(furan-2-ylmethyl)-amino]-5-propylsulfanyl-[1,2,3]triazolo[4,5-d]pyrimidin-3-yl}-cyclohex-4-ene-1,2,3-triol], on ADP P2Y12, the half-inhibitory concentration (IC50) is more than 30 µM.

Take `CCCSc1nc(NCC2CCCN2CC)c2nnn([C@@H]3C=C[C@H](O)[C@@H](O)[C@H]3O)c2n1` (stereo partly drawn) [Cpd 6, (1S,2R,3S,4R)-6-{7-[(1-ethyl-pyrrolidin-2-ylmethyl)-amino]-5-propylsulfanyl-[1,2,3]triazolo[4,5-d]pyrimidin-3-yl}-cyclohex-4-ene-1,2,3-triol]: the IC50 at ADP P2Y12 was more than 30 µM. With `CCCSc1nc(NCCc2cccs2)c2nnn([C@@H]3C=C[C@H](O)[C@@H](O)[C@H]3O)c2n1` [Cpd 7, (1S,2R,3S,4R)-6-[5-propylsulfanyl-7-(2-thiophen-2-yl-ethylamino)-[1,2,3]triazolo[4,5-d]pyrimidin-3-yl]-cyclohex-4-ene-1,2,3-triol], the half-maximal inhibitory concentration (IC50) was 14.7 µM at ADP P2Y12 and 2.27 µM on P2Y12 receptor. Consider `CCCSc1nc(NCc2cccn2C)c2nnn([C@@H]3C=C[C@H](O)[C@@H](O)[C@H]3O)c2n1` [Cpd 8, (1S,2R,3S,6R)-6-{7-[(1-methyl-1H-pyrrol-2-ylmethyl)-amino]-5-propylsulfanyl-[1,2,3]triazolo[4,5-d]pyrimidin-3-yl}-cyclohex-4-ene-1,2,3-triol], for which the IC50 on ADP P2Y12 is more than 30 µM. On the same count and under the same terms, in the case of `CCCSc1nc(NC[C@@H]2CCCO2)c2nnn([C@@H]3CC[C@H](O)[C@@H](O)[C@H]3O)c2n1` [Cpd 16, (1S,2R,3S,4R)-4-(5-propylsulfanyl-7-{[(2S)-tetrahydro-furan-2-ylmethyl]-amino}-[1,2,3]triazolo[4,5-d]pyrimidin-3-yl)-cyclohexane-1,2,3-triol] it was more than 30 µM; in that of `CCCSc1nc(NCc2ccco2)c2nnn([C@@H]3CC[C@H](O)[C@@H](O)[C@H]3O)c2n1` [Cpd 18, (1S,2R,3S,4R)-4-{7-[(furan-2-ylmethyl)-amino]-5-propylsulfanyl-[1,2,3]triazolo[4,5-d]pyrimidin-3-yl}-cyclohexane-1,2,3-triol], more than 30 µM; in that of `CCCCNc1nc(SCCC)nc2c1nnn2[C@@H]1CC[C@H](O)[C@@H](O)[C@H]1O` [Cpd 19, (1S,2R,3S,4R)-4-(7-butylamino-5-propylsulfanyl-[1,2,3]triazolo[4,5-d]pyrimidin-3-yl)-cyclohexane-1,2,3-triol], 2.93 µM. For `CCCSc1nc(NCCc2cccs2)c2nnn([C@@H]3CC[C@H](O)[C@@H](O)[C@H]3O)c2n1` [Cpd 20, (1S,2R,3S,4R)-4-[5-propylsulfanyl-7-(2-thiophen-2-yl-ethylamino)-[1,2,3]triazolo[4,5-d]pyrimidin-3-yl]-cyclohexane-1,2,3-triol], the IC50 on ADP P2Y12 is more than 30 µM. Still for that read-out and setting: in the case of `CCCSc1nc(N[C@@H]2CCN(Cc3ccccc3)C2)c2nnn([C@@H]3CC[C@H](O)[C@@H](O)[C@H]3O)c2n1` [Cpd 22, (1S,2R,3S,4R)-4-{7-[(3R)-1-benzyl-pyrrolidin-3-ylamino]-5-propylsulfanyl-[1,2,3]triazolo[4,5-d]pyrimidin-3-yl}-cyclohexane-1,2,3-triol] it was more than 30 µM.
